Reference: patent US9884842B2, “Combretastatin analogs” (The Board of Trustees of the University of Arkansas, priority 2013, dated 2018)
Read-outs that look alike come from different tables or passages of the source.

Legend:
[1] = tested on: full panel of 60 different cancer cell lines; assay: NCI five dose screen, full panel summary; assay type: cell-based, human; conditions: for GI50: Homo sapiens; for potent growth inhibition on % of the cancer cell lines: share of the cancer cell lines potently inhibited
HL-60(TB) = assay: cells; conditions: Homo sapiens; for GI50: HL-60; for CC50: HL-60, read-out: LC50
OVCAR-3 = assay: cells; conditions: Homo sapiens; for GI50: OVCAR-3; for CC50: OVCAR-3, read-out: LC50
RPMI-8226 = assay: NCI growth inhibition and cytotoxicity screen, Leukemia panel; conditions: Homo sapiens; for GI50: RPMI-8226; for CC50: RPMI-8226, read-out: LC50
M14 = assay: NCI growth inhibition and cytotoxicity screen, Melanoma panel; conditions: Homo sapiens; for GI50: M14; for CC50: M14, read-out: LC50
MDA-MB-435 = assay: as above; conditions: Homo sapiens; for GI50: MDA-MB-435; for CC50: MDA-MB-435, read-out: LC50
SK-MEL-28 = assay: as above; conditions: Homo sapiens; for GI50: SK-MEL-28; for CC50: SK-MEL-28, read-out: LC50
UACC-62 = assay: as above; conditions: Homo sapiens; for GI50: UACC-62; for CC50: UACC-62, read-out: LC50
SF-268 = assay: NCI growth inhibition and cytotoxicity screen, CNS Cancer panel; conditions: Homo sapiens; for GI50: SF-268; for CC50: SF-268, read-out: LC50
A549/ATCC = assay: NCI growth inhibition and cytotoxicity screen, Lung Cancer panel; conditions: Homo sapiens; for GI50: A549; for CC50: A549, read-out: LC50
HOP-62 = assay: as above; conditions: Homo sapiens; for GI50: HOP-62; for CC50: HOP-62, read-out: LC50
HOP-92 = assay: as above; conditions: Homo sapiens; for GI50: HOP-92; for CC50: HOP-92, read-out: LC50
NCI-H460 = assay: as above; conditions: Homo sapiens; for GI50: NCI-H460; for CC50: NCI-H460, read-out: LC50
COLO 205 = assay: NCI growth inhibition and cytotoxicity screen, Colon Cancer panel; conditions: Homo sapiens; for GI50: COLO 205; for CC50: COLO 205, read-out: LC50
HCT-116 = assay: as above; conditions: Homo sapiens; for GI50: HCT-116; for CC50: HCT-116, read-out: LC50
HT29 = assay: as above; conditions: Homo sapiens; for GI50: HT-29; for CC50: HT-29, read-out: LC50
786-0 = assay: NCI growth inhibition and cytotoxicity screen, Renal Cancer panel; conditions: Homo sapiens; for GI50: 786-0; for CC50: 786-0, read-out: LC50
A498 = assay: as above; conditions: Homo sapiens; for GI50: A498; for CC50: A498, read-out: LC50
RXF 393 = assay: as above; conditions: Homo sapiens; for GI50: RXF 393; for CC50: RXF 393, read-out: LC50
TK-10 = assay: as above; conditions: Homo sapiens; for GI50: TK-10; for CC50: TK-10, read-out: LC50
UO-31 = assay: as above; conditions: Homo sapiens; for CC50: UO-31, read-out: LC50
BT-549 = assay: NCI growth inhibition and cytotoxicity screen, Breast Cancer panel; conditions: Homo sapiens; for GI50: BT-549; for CC50: BT-549, read-out: LC50
T-47D = assay: as above; conditions: Homo sapiens, T47D; for CC50: read-out: LC50
IGROV1 = assay: NCI growth inhibition and cytotoxicity screen, Ovarian Cancer panel; conditions: Homo sapiens; for GI50: IGROV-1; for CC50: IGROV-1, read-out: LC50
OVCAR-8 = assay: as above; conditions: Homo sapiens; for GI50: OVCAR-8; for CC50: OVCAR-8, read-out: LC50
NCI/ADR-RES = assay: as above; conditions: Homo sapiens; for CC50: read-out: LC50
DU-145 = assay: NCI growth inhibition and cytotoxicity screen, Prostate Cancer panel; conditions: Homo sapiens; for GI50: DU-145; for CC50: DU-145, read-out: LC50
[2] = range over the potently inhibited cell lines, read-out: GI50 ranging (potently inhibited cancer cell lines)
[3] = read-out: average GI50 value on all the cancer cell lines

COc1cc(/C(C#N)=C/c2ccc3ccccc3n2)cc(OC)c1OC [PNR-4-90, (Z)-3-(quinolin-2-yl)-2-(3,4,5-trimethoxyphenyl)acrylonitrile]
GI50 [1, 2]: 33 to 943 nM
GI50 [1, 3]: 400 nM
potent growth inhibition on % of the cancer cell lines [1]: 91%
GI50 (HL-60(TB)): 223 nM
CC50 (HL-60(TB)): > 100000 nM
GI50 (OVCAR-3): 163 nM
CC50 (OVCAR-3): 54900 nM
GI50 (RPMI-8226): 297 nM
CC50 (RPMI-8226): > 100000 nM
GI50 (M14): 173 nM
CC50 (M14): > 100000 nM
GI50 (MDA-MB-435): 33 nM
CC50 (MDA-MB-435): 60000 nM
GI50 (SK-MEL-28): 518 nM
CC50 (SK-MEL-28): > 100000 nM
GI50 (UACC-62): 92 nM
CC50 (UACC-62): > 100000 nM
GI50 (SF-268): 835 nM
CC50 (SF-268): > 100000 nM
GI50 (A549/ATCC): 375 nM
CC50 (A549/ATCC): > 100000 nM
GI50 (HOP-62): 567 nM
CC50 (HOP-62): > 100000 nM
GI50 (HOP-92): 736 nM
CC50 (HOP-92): > 100000 nM
GI50 (NCI-H460): 361 nM
CC50 (NCI-H460): > 100000 nM
GI50 (COLO 205): 198 nM
CC50 (COLO 205): 32700 nM
GI50 (HCT-116): 234 nM
CC50 (HCT-116): > 100000 nM
GI50 (HT29): 240 nM
CC50 (HT29): > 100000 nM
GI50 (786-0): 445 nM
CC50 (786-0): > 100000 nM
GI50 (A498): 295 nM
CC50 (A498): > 100000 nM
GI50 (RXF 393): 271 nM
CC50 (RXF 393): > 100000 nM
GI50 (TK-10): 4690 nM
CC50 (TK-10): > 100000 nM
GI50 (UO-31; UO-31): 762 nM
CC50 (UO-31): > 100000 nM
GI50 (BT-549): 315 nM
CC50 (BT-549): > 100000 nM
GI50 (T-47D): 4760 nM
CC50 (T-47D): > 100000 nM
GI50 (IGROV1): 846 nM
CC50 (IGROV1): > 100000 nM
GI50 (OVCAR-8): 446 nM
CC50 (OVCAR-8): > 100000 nM
GI50 (NCI/ADR-RES): 112 nM
CC50 (NCI/ADR-RES): > 100000 nM
GI50 (DU-145): 446 nM
CC50 (DU-145): > 100000 nM

COc1cc(OC)cc(/C(C#N)=C/c2cnc3ccccc3c2)c1 [PNR-4-85, (Z)-3-(quinolin-3-yl)-2-(3,5-dimethoxyphenyl)acrylonitrile]
GI50 [1, 2]: 53 to 903 nM
GI50 [1, 3]: 2210 nM
potent growth inhibition on % of the cancer cell lines [1]: 81%
GI50 (HL-60(TB)): 234 nM
CC50 (HL-60(TB)): > 100000 nM
GI50 (OVCAR-3): 279 nM
CC50 (OVCAR-3): > 100000 nM
GI50 (RPMI-8226): 332 nM
CC50 (RPMI-8226): > 100000 nM
GI50 (M14): 310 nM
CC50 (M14): > 100000 nM
GI50 (MDA-MB-435): 53 nM
CC50 (MDA-MB-435): > 100000 nM
GI50 (SK-MEL-28): 1400 nM
CC50 (SK-MEL-28): > 100000 nM
GI50 (UACC-62): 357 nM
CC50 (UACC-62): > 100000 nM
GI50 (SF-268): 654 nM
CC50 (SF-268): > 100000 nM
GI50 (A549/ATCC): 556 nM
CC50 (A549/ATCC): > 100000 nM
GI50 (HOP-62): 793 nM
CC50 (HOP-62): > 100000 nM
GI50 (HOP-92): 3090 nM
CC50 (HOP-92): > 100000 nM
GI50 (NCI-H460): 362 nM
CC50 (NCI-H460): > 100000 nM
GI50 (COLO 205): 398 nM
CC50 (COLO 205): 89900 nM
GI50 (HCT-116): 420 nM
CC50 (HCT-116): > 100000 nM
GI50 (HT29): 362 nM
CC50 (HT29): > 100000 nM
GI50 (786-0): 484 nM
CC50 (786-0): > 100000 nM
GI50 (A498): 333 nM
CC50 (A498): > 100000 nM
GI50 (RXF 393): 297 nM
CC50 (RXF 393): > 100000 nM
GI50 (TK-10): 17700 nM
CC50 (TK-10): > 100000 nM
CC50 (UO-31): > 100000 nM
GI50 (BT-549): 388 nM
CC50 (BT-549): > 100000 nM
GI50 (T-47D): 628 nM
CC50 (T-47D): > 100000 nM
GI50 (IGROV1): 3500 nM
CC50 (IGROV1): > 100000 nM
GI50 (OVCAR-8): 584 nM
CC50 (OVCAR-8): > 100000 nM
GI50 (NCI/ADR-RES): 224 nM
CC50 (NCI/ADR-RES): > 100000 nM
GI50 (DU-145): 505 nM
CC50 (DU-145): > 100000 nM
